In patent US20240335404A1, “SUBSTITUTED ESTERS CONTAINING POLYOLS AND SACCHARIDES FOR TREATING HEPATOTOXICITY AND FATTY LIVER DISEASES” (SINEW PHARMA INC., priority 2015, published 2024):

Tested on: Liver Injuries Induced by CCl4
Assay: Liver injuries induced by CCl4 in mice (GSP, AST/ALT, HAI)
Format: in vivo
Description: In the normal control, animals were administered with normal saline by intraperitoneal injection. In the control group of CCl4 induced liver injuries, animals were intraperitoneally injected with 10 ml/kg CCl4 (40% in corn oil) to induce hepatotoxicity. In the experimental group, animals were intraperitoneally injected with 10 ml/kg CCl4 (40% in corn oil) to induce hepatotoxicity, and 4 hours later, different ingredients of the present invention were administered by tube feeding. Blood was collected from the mice before administration with the ingredients of the present invention or at 24 hours after administration with the ingredients of the present invention for AST/ALT assays. Finally, animals were sacrificed at day 2 and blood were collected for AST/ALT assay and histological analysis was performed.
On the other hand, other experimental groups of mice were fed with the ingredients of the present invention for 12 weeks and the mice were subjected to GSP tests.
Liver damage is quantified by measuring plasma AST and ALT activity. AST and ALT are common indicators of hepatotoxicity and are measured by using the Synchron LXi 725 system (Beckman Instruments, U.S.).
Following scarification of the rats, histological analysis was performed. Liver samples were fixed with 10% phosphate-buffered formalin, dehydrated an embedded in paraffin, Sections were prepared in 5 μm thickness and then stained with hematoxylin and eosin and subjected to Periodic acid Schiff stain (PAS). The stained sections were observed under the optic microscope.
After the study was completed, all rats were subjected to GSP test. Rats were i.v. injected with 0.4 g/ml BW galactose solution 0.5 g/kg within 30 seconds and one blood sample was collected at 5, 10, 15, 30, 45 and 60 minutes post injection from the tail vein. Colorimetric galactose dehydrogenase is used to quantify the concentration of galactose and the test concentration ranges from 50 to 1,000 μg/ml. The within-day variation of each concentration is calculated using standard deviation and coefficient of variation (CV) and the maximum allowable coefficient of variation is 10% CV, whereas day-to-day variation is examined by comparing the slope and intercept of calibration curves. The GSP is the blood galactose concentration obtained 60 seconds after stopping the 30-second injection.
All data are represented in mean±standard deviation (SD) and the results are calculated using ANOVA to determine the significance. Statistical Package of the Social Science program (Version 13, SPSS Inc.) is used for calculations followed by post hoc test to examine the least significant difference for multiple comparisons so as to confirm the significant differences between groups and the average difference between groups was significant p<0.05.

[1] = CCl4-induced liver injuries, dose less than or equivalent to 100 mg per person

OC[C@@H](O)[C@@H](O)[C@H](O)[C@H](O)CO [Mannitol]
ALT [1]: 77 ± 22 IU/L | AST [1]: 91 ± 28 IU/L | GSP [1]: 290 ± 78 mg/L | Total HAI score [1]: 0.8 ± 0.5 | effect on CCl4-induced liver injuries (mice, CCl4): liver injuries can be improved
